# Assay results as given in ChEMBL document CHEMBL4483862, “Open-source discovery of chemical leads for next-generation chemoprotective antimalarials” (2018).
# System: Plasmodium berghei
# Test: Luciferase/luciferin-expressing antifolate-resistant parasites were used to infect a culture of HepG2 cells that were pre-incubated with compounds. Infected hepatocytes emit light due to the luciferase reaction. Assay results are presented as the percent inhibition of light emission compared to control. […]
# Type: functional
# Conditions: sporozoite; for IC90: read-out: LUCIFERASE INFECTION ASSAY - IC90
# [1] = read-out: LUCIFERASE INFECTION ASSAY - IC50
compound,measurement,setting,value
Cc1ccc(NCc2c(Cl)nc3sccn23)c(C)c1,IC50,"HEPG2TOX_HILL_SLOPE 1.69, HEPG2TOX_R_SQUARED 0.916, PBLUC_HILL_SLOPE 2.14, PBLUC_R_SQUARED 0.29, read-out: LUCIFERASE INFECTION ASSAY - IC50",10.3 µM
same,IC90,,> 11.3 µM
Cc1c2cnn(C)c(=O)c2c(C)n1Cc1cccs1,IC50,"PBLUC_HILL_SLOPE 0.733, PBLUC_R_SQUARED 0.45, read-out: LUCIFERASE INFECTION ASSAY - IC50",4.19 µM
same,IC90,,> 12.1 µM
CCOC(=O)c1c(C)[nH]c(C(=O)COC(=O)Cn2[nH]c(=O)c3ccccc3c2=O)c1C,IC50,"HEPG2TOX_HILL_SLOPE 2.60, 1.21, HEPG2TOX_R_SQUARED 0.645, 0.988, read-out: LUCIFERASE INFECTION ASSAY - IC50",> 10 µM
same,IC90,,> 10 µM
O=C(Nc1ccc(Oc2cccc3cccnc23)cc1)c1cccs1,IC50,[1],> 9.53 µM
same,IC90,,> 9.53 µM
CCN1CCN(c2ccc(NC(=O)CSc3nc4ccccc4s3)c(C)c2)CC1,IC50,[1],> 10 µM
same,IC90,,> 10 µM
Cc1cnc(NC(=O)CSCc2cccs2)s1,IC50,[1],> 10 µM
same,IC90,,> 10 µM
Cn1cc(-c2cn3c(-c4cccc(OC(F)(F)F)c4)cnc3cn2)cn1,IC50,"PBLUC_HILL_SLOPE 3.72, PBLUC_R_SQUARED 0.643, read-out: LUCIFERASE INFECTION ASSAY - IC50",5.44 µM
same,IC90,,> 9.18 µM
NC(=O)c1c(NC(=O)N2CCC(Cc3ccccc3)CC2)sc2c1CCC2,IC50,"HEPG2TOX_HILL_SLOPE 1.79, HEPG2TOX_R_SQUARED 0.702, PBLUC_HILL_SLOPE 1.44, PBLUC_R_SQUARED 0.101, read-out: LUCIFERASE INFECTION ASSAY - IC50",3.57 µM
same,IC90,,> 8.6 µM
CSc1sc(C(=O)NC(=O)Nc2cccc(C(F)(F)F)c2)cc1C#N,IC50,"FFLUC_HILL_SLOPE 12.6, FFLUC_R_SQUARED 0.0423, read-out: LUCIFERASE INFECTION ASSAY - IC50",> 8.56 µM
same,IC90,,> 8.56 µM
CCN1C(=O)N(Cc2cccc(OC)c2)C(=O)C12CCN(CC(c1ccccc1)c1ccccc1)CC2,IC50,"PBLUC_HILL_SLOPE 15.1, PBLUC_R_SQUARED 0.228, read-out: LUCIFERASE INFECTION ASSAY - IC50",6.16 µM
same,IC90,,> 6.63 µM
Cc1ccc(C(C)C)c(OCc2ccc(-c3nnco3)cc2)c1,IC50,[1],> 10 µM
same,IC90,,> 10 µM
Cc1ccccc1CNc1ncnc2sccc12,IC50,[1],5.22 µM
same,IC90,,> 10 µM
O=C(Nc1ccc(Br)c(C(F)(F)F)c1)c1ccc(N2CCOCC2)nc1,IC50,"HEPG2TOX_HILL_SLOPE 0.861, HEPG2TOX_R_SQUARED 0.877, PBLUC_HILL_SLOPE 1.11, PBLUC_R_SQUARED 0.718, read-out: LUCIFERASE INFECTION ASSAY - IC50",1.48 µM
same,IC90,,> 10 µM
COc1cccc(Oc2ccc(C(F)(F)F)cc2NC(=O)c2ccc(NC(=O)C3CC3)s2)c1,IC50,"PBLUC_HILL_SLOPE 3.5, PBLUC_R_SQUARED 0.215, read-out: LUCIFERASE INFECTION ASSAY - IC50",6.65 µM
same,IC90,,> 10 µM
CC(C)(C)c1cc2nc(C(F)(F)F)cc(N/N=C/c3ccccc3)n2n1,IC50,"PBLUC_HILL_SLOPE 15.2, PBLUC_R_SQUARED 0.244, read-out: LUCIFERASE INFECTION ASSAY - IC50",8.24 µM
same,IC90,,> 9.13 µM
Cc1sc2ncnc(Sc3nc4ncccn4n3)c2c1C,IC50,[1],> 2 µM
same,IC90,,> 2 µM
CC1(C)C2CC=C(/C=N/NC(=O)Cn3c(C(F)(F)F)nc4ccccc43)C1C2 (stereo not given),IC50,"PBLUC_HILL_SLOPE 3.28, PBLUC_R_SQUARED 0.493, read-out: LUCIFERASE INFECTION ASSAY - IC50",6.15 µM
same,IC90,,> 10 µM
CC(NC(=O)COC(=O)COc1ccc2c(c1)CCC(=O)N2)c1ccco1 (stereo not given),IC50,[1],> 10 µM
same,IC90,,> 10 µM
CCN(Cc1ccccc1)S(=O)(=O)c1cc(C(=O)OCc2ccccc2Cl)ccc1OC,IC50,[1],> 10 µM
same,IC90,,> 10 µM
Cc1ccc(C(=O)COC(=O)Cc2n[nH]c(=O)c3ccccc23)s1,IC50,"HEPG2TOX_HILL_SLOPE 1.97, HEPG2TOX_R_SQUARED 0.94, PBLUC_HILL_SLOPE 2.28, PBLUC_R_SQUARED 0.564, read-out: LUCIFERASE INFECTION ASSAY - IC50",3.44 µM
same,IC90,,9 µM
CC(C)(C)c1cc(C(=O)/C(C#N)=N/Nc2ccc(Cl)cc2)no1,IC50,"HEPG2TOX_HILL_SLOPE 1.26, HEPG2TOX_R_SQUARED 0.947, PBLUC_HILL_SLOPE 9.91, PBLUC_R_SQUARED 0.6, read-out: LUCIFERASE INFECTION ASSAY - IC50",3.46 µM
same,IC90,,4.32 µM
O=C(Nc1ccc(Cl)cc1)n1ccc(/C=C/c2ncc(C(F)(F)F)cc2Cl)n1,IC50,"HEPG2TOX_HILL_SLOPE 28.5, HEPG2TOX_R_SQUARED 0.883, PBLUC_HILL_SLOPE 15.5, PBLUC_R_SQUARED 0.352, read-out: LUCIFERASE INFECTION ASSAY - IC50",7.23 µM
same,IC90,,> 7.72 µM
O=C(Nc1cc(C(F)(F)F)ccc1N1CCOCC1)c1ccc(SCc2cscn2)cc1,IC50,"PBLUC_HILL_SLOPE 11.6, PBLUC_R_SQUARED 0.493, read-out: LUCIFERASE INFECTION ASSAY - IC50",8.97 µM
same,IC90,,> 10 µM
CO/N=C1\CC(C)(C)Cc2c(-c3ccn(C(=O)Nc4ccc(Cl)cc4)n3)sc(SC)c21,IC50,[1],> 6.95 µM
same,IC90,,> 6.95 µM
COc1ccccc1-c1ccc2ncc(-c3cccc(NC(C)=O)c3)n2n1,IC50,"HEPG2TOX_HILL_SLOPE 1.56, HEPG2TOX_R_SQUARED 0.888, PBLUC_HILL_SLOPE 1.15, PBLUC_R_SQUARED 0.442, read-out: LUCIFERASE INFECTION ASSAY - IC50",4.22 µM
same,IC90,,> 10 µM
COc1ccc(O)c(C(=O)c2cc(Cl)c3nc4ccccc4c(=O)n3c2)c1,IC50,"PBLUC_HILL_SLOPE 1.52, PBLUC_R_SQUARED 0.671, read-out: LUCIFERASE INFECTION ASSAY - IC50",0.117 µM
same,IC90,,0.494 µM
CN1CCN(c2ccc(-c3cn4c(-c5cccc(N(C)C)c5)cnc4cn3)cn2)CC1,IC50,"PBLUC_HILL_SLOPE 2.11, PBLUC_R_SQUARED 0.385, read-out: LUCIFERASE INFECTION ASSAY - IC50",6.15 µM
same,IC90,,> 7.98 µM
O=C1C=CC(=O)N1c1ccccc1Cl,IC50,[1],6.18 µM
same,IC90,,> 15.9 µM
O=C(O)c1cnc2cc3c(cc2c1O)OCCO3,IC50,"PBLUC_HILL_SLOPE 2.36, 2.10, PBLUC_R_SQUARED 0.249, 0.136, read-out: LUCIFERASE INFECTION ASSAY - IC50",7.92 µM
same,IC90,,> 10 µM
O=C(Nc1cccc(S(=O)(=O)NC2=NCCCCC2)c1)c1cncc(Br)c1,IC50,[1],> 10 µM
same,IC90,,> 10 µM
Cc1ccc(-n2nnnc2SCc2ccccc2Cl)c(C)c1,IC50,"HEPG2TOX_HILL_SLOPE 1.94, HEPG2TOX_R_SQUARED 0.896, PBLUC_HILL_SLOPE 2.04, PBLUC_R_SQUARED 0.254, read-out: LUCIFERASE INFECTION ASSAY - IC50",6.75 µM
same,IC90,,> 9.97 µM
COc1cccc(CNCCCSc2nnnn2-c2ccccc2)c1,IC50,[1],> 9.28 µM
same,IC90,,> 9.28 µM
CN(Cc1nc2ccccc2s1)C(=O)c1cc(-c2ccccc2)c(N2CCOCC2)s1,IC50,[1],> 10 µM
same,IC90,,> 10 µM
CNc1nc2cnc(Nc3ccc(OC(C)C)cc3)cc2n1-c1cc(OC)c(OC)c(OC)c1,IC50,"PBLUC_HILL_SLOPE 1.37, PBLUC_R_SQUARED 0.322, read-out: LUCIFERASE INFECTION ASSAY - IC50",5.86 µM
same,IC90,,> 10 µM
Cc1cc(C(C)(C)C)cc(C)c1S(=O)(=O)N1CC(=O)Nc2ccccc21,IC50,"PBLUC_HILL_SLOPE 6.12, PBLUC_R_SQUARED 0.785, read-out: LUCIFERASE INFECTION ASSAY - IC50",6.84 µM
same,IC90,,> 8.86 µM
COc1cc(-c2cnc3cnc(-c4ccc(NCCN5CCOCC5)nc4)cn23)ccc1O,IC50,"HEPG2TOX_HILL_SLOPE 1.25, HEPG2TOX_R_SQUARED 0.41, PBLUC_HILL_SLOPE 2.45, PBLUC_R_SQUARED 0.19, read-out: LUCIFERASE INFECTION ASSAY - IC50",6.15 µM
same,IC90,,> 7.39 µM
O=C(/C=C/c1cccs1)N1CCN(S(=O)(=O)c2c(Cl)cc(Br)cc2Cl)CC1,IC50,"PBLUC_HILL_SLOPE 3.28, PBLUC_R_SQUARED 0.115, read-out: LUCIFERASE INFECTION ASSAY - IC50",5.38 µM
same,IC90,,> 10 µM
COC(=O)c1c(C)[nH]c(C(=O)Nc2nc(-c3cc(C)sc3C)cs2)c1C,IC50,"HEPG2TOX_HILL_SLOPE 5.44, HEPG2TOX_R_SQUARED 0.234, read-out: LUCIFERASE INFECTION ASSAY - IC50",> 10 µM
same,IC90,,> 10 µM
Cc1ccc(CSc2nccc(-c3c(C)nc4ccccn34)n2)cc1,IC50,"HEPG2TOX_HILL_SLOPE 2.56, HEPG2TOX_R_SQUARED 0.969, PBLUC_HILL_SLOPE 4.1, PBLUC_R_SQUARED 0.204, read-out: LUCIFERASE INFECTION ASSAY - IC50",6.17 µM
same,IC90,,> 9.53 µM
CCOC(=O)c1sc(N)c(C#N)c1CSc1ncc(C(F)(F)F)cc1Cl,IC50,"PBLUC_HILL_SLOPE 1.96, PBLUC_R_SQUARED 0.0831, read-out: LUCIFERASE INFECTION ASSAY - IC50",> 10 µM
same,IC90,,> 10 µM
O=C(Nc1ccc(-c2nc3ccccc3[nH]2)cc1)C1CCCO1 (stereo not given),IC50,[1],> 10 µM
same,IC90,,> 10 µM
Nc1cc(C(F)(F)F)cnc1Nc1ccc(Cl)cc1,IC50,[1],> 11.5 µM
same,IC90,,> 11.5 µM
CC(C)(C)c1ccc(C(=O)NNC(=S)Nc2ccccc2)cc1,IC50,"FFLUC_HILL_SLOPE 0.417, FFLUC_R_SQUARED 0.371, PBLUC_HILL_SLOPE 1.47, PBLUC_R_SQUARED 0.465, read-out: LUCIFERASE INFECTION ASSAY - IC50",3.05 µM
same,IC90,,> 10.1 µM
Cc1cc(O)cc2c1C(=O)/C(=C/c1ccc(F)cc1)O2,IC50,[1],> 12.2 µM
same,IC90,,> 12.2 µM
O=C1C=C/C(=N\Nc2ccc3ccccc3c2)c2cccnc21,IC50,"HEPG2TOX_HILL_SLOPE 0.424, HEPG2TOX_R_SQUARED 0.848, PBLUC_HILL_SLOPE 2.17, PBLUC_R_SQUARED 0.805, read-out: LUCIFERASE INFECTION ASSAY - IC50",0.42 µM
same,IC90,,1.15 µM
